Data as given in paper PMC7035293, “Structural ensemble of a glutamate transporter homologue in lipid nanodisc environment” (Nature Communications, 2020).

Columns and labels:
GltTk = biological target: T1, GltTk (Thermococcus kodakarensis, UniProt Q5JID0); assay: cryo-EM structure of the complex in lipid nanodiscs; settings: 300 mM Na+, aspartate binding site
T1 construct: gene TK0986; C-terminal His8 tag, expressed in E. coli MC1061 (pBAD24-derived plasmid), purified apo, reconstituted in MSP2N2 lipid nanodiscs; homotrimer

[1] = biological target: glutamate transporter homologue GltTk from Thermococcus kodakarensis (Thermococcus kodakarensis) (UniProt Q5JID0); assay: cryo-EM structure; GltTk in MSP2N2 nanodiscs (E. coli polar lipids:egg PC 3:1 w/w), 20 mM Tris-HCl pH 8.0, 300 mM NaCl; five structures: Na+-only, L-aspartate unsaturated (two structures), L-aspartate saturated, 120 uM DL-TBOA; 200 keV Talos Arctica

T1 sequence (Q5JID0 entry or part of it): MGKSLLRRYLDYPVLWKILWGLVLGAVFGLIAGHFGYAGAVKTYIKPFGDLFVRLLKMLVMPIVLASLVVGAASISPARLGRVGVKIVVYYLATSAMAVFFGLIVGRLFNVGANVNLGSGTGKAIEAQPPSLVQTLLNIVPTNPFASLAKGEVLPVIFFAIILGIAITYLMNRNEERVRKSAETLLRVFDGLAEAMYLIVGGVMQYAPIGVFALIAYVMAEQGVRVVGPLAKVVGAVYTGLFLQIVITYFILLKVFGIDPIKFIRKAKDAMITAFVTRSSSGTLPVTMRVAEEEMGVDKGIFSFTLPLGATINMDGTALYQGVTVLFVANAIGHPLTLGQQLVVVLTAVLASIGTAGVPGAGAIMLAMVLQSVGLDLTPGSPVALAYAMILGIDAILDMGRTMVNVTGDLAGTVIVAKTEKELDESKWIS

With `NC(C(=O)O)C(OCc1ccccc1)C(=O)O` (racemic) [DL-TBOA] the “cryo-EM structure of the complex in lipid nanodiscs” value (GltTk; pH 8.0, 120 uM DL-TBOA with 4.5 uM nanodiscs, competitive, outward-open state, two of three protomers occupied) was “The fully-outward protomers have wide open HP2 gates”.
With `N[C@@H](CC(=O)O)C(=O)O` [L-aspartate] the “cryo-EM structure of the complex in lipid nanodiscs” value (GltTk; pH 8.0, 50 uM L-aspartate with 5.6 uM nanodiscs, intermediate-outward occluded state, also sub-saturating structures 6XWO and 6XWP) was “density for the amino acid substrate in the binding site is observed”.
“glutamate transporter homologue GltTk from Thermococcus kodakarensis (from UniProt Q5JID0 1-430) (natural protein)” was tested, and the stoichiometry N [1] was 3.
